The first assay has as its system 1535 (donor line of iPSC-derived cardiomyocytes). Nature of the assay: POD (EC05) for increase in beat frequency (positive chronotrope) vs vehicle; higher = less potent (higher point of departure). The following applies: exposure time: 90 min. The method, then: (§1)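 Human iPSC-derived cardiomyocytes from 16 donors were exposed for 90 min at 37 °C to each PFAS at 0.1, 1, 10 and 100 µM in 0.5% DMSO, 384-well plates. Kinetic Ca2+ flux (FLIPR) and Hoechst nuclei counts were normalised to vehicle wells and fitted with a hierarchical Bayesian Hill model to give donor-specific PODs: EC05 for beat-rate increase or decrease and for decay-to-rise ratio increase (QT proxy), EC95 for peak-frequency loss (asystole), EC10 for total cell number loss. 0.03 µM is the lower bound.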
With `OCC(O)CC(F)(F)C(F)(F)C(F)(F)C(F)(F)C(F)(F)C(F)(F)C(F)(F)C(F)(F)F` (centres undefined) [1-(Perfluorofluorooctyl)propane-2,3-diol], the POD vs vehicle is over 100 µM.

`CC(O)C(F)(F)C(F)(F)F` (centres undefined) [1-Pentafluoroethylethanol]: the POD vs vehicle was over 100 µM.

With `OCC(F)(F)C(F)(F)C(F)(F)C(F)F` [1H,1H,5H-Perfluoropentanol], the POD vs vehicle was over 100 µM.

`O=S(=O)(OCC(F)(F)F)C(F)(F)C(F)(F)C(F)(F)C(F)(F)F` [2,2,2-Trifluoroethyl_perfluorobutanesulfonate] came in with a POD vs vehicle of over 100 µM.

Compound `O=C(O)C(F)(F)C(F)(F)C(F)F` [2,2,3,3,4,4-Hexafluorobutanoic_acid] yielded a POD vs vehicle of over 100 µM.

Turning to `NC(O)(C(F)(F)F)C(F)(F)F` [2-Aminohexafluoropropan-2-ol], the POD vs vehicle is over 100 µM.

Consider `O=C(O)CCC(F)(F)C(F)(F)C(F)(F)C(F)(F)C(F)(F)F` [2H,2H,3H,3H-Perfluorooctanoic_acid], for which the POD vs vehicle was over 100 µM.

Compound `O=C(O)C=C(C(F)(F)F)C(F)(F)F` [3,3-Bis(trifluoromethyl)-2-propenoic_acid] displayed a POD vs vehicle of over 100 µM.

In turn, `O=C(O)C=CC(F)(C(F)(F)F)C(F)(F)F` [3-(Perfluoroisopropyl)-2-propenoic_acid] displayed a POD vs vehicle of over 100 µM.

As to `O=C(O)CCC(F)(F)C(F)(F)C(F)(F)C(F)(F)C(F)(F)C(F)(F)C(F)(F)F` [3-Perfluoroheptylpropanoic_acid], the POD vs vehicle was over 100 µM.

Consider `O=C(O)CCC(F)(F)C(F)(F)C(F)(F)F` [3:3 Fluorotelomer carboxylic acid], for which the POD vs vehicle was over 100 µM.

`O=C(CC(=O)C(F)(F)C(F)(F)F)C(F)(F)F` [3H,3H-Perfluoro-2,4-hexanedione] came in with a POD vs vehicle of over 100 µM.

Regarding `OCCC(F)(F)C(F)(F)C(F)(F)C(F)(F)F` [4:2 Fluorotelomer alcohol], the POD vs vehicle was over 100 µM.

As to `O=S(=O)(O)CCC(F)(F)C(F)(F)C(F)(F)C(F)(F)F` [4:2 Fluorotelomer sulfonic acid], the POD vs vehicle was over 100 µM.

In turn, `O=C([O-])C(F)(F)C(F)(F)C(F)(F)C(F)(F)C(F)(F)C(F)(F)C(F)(F)F.[NH4+]` [Ammonium_perfluorooctanoate] registered a POD vs vehicle of over 100 µM.

Take `OCC(F)(F)OC(F)(F)C(F)(F)OC(F)(F)C(F)(F)OC(F)(F)F` [Fluorinated_triethylene_glycol_monomethyl_ether]: the POD vs vehicle was over 100 µM.

Consider `CN(CCO)S(=O)(=O)C(F)(F)C(F)(F)C(F)(F)C(F)(F)C(F)(F)C(F)(F)C(F)(F)C(F)(F)F` [N-Methyl-N-(2-hydroxyethyl)perfluorooctanesulfonamide], for which the POD vs vehicle is over 100 µM.

`O=S(=O)(O)C(F)(F)C(F)(F)C(F)(F)C(F)(F)F` [Perfluorobutanesulfonic_acid]: the POD vs vehicle is over 100 µM.

As to `O=C(O)C(F)(F)C(F)(F)C(F)(F)C(F)(F)C(F)(F)C(F)(F)C(F)(F)C(F)(F)C(F)(F)C(F)(F)F` [Perfluoroundecanoic_acid], the POD vs vehicle was over 100 µM.

A further assay concerns 1565 (donor line of iPSC-derived cardiomyocytes). Described as above. The following applies: exposure time: 90 min. The protocol: as §1
`NC(=O)C(F)(F)C(F)(F)C(F)(F)C(F)F` yielded a POD vs vehicle of over 100 µM.

Regarding `OCC(O)CC(F)(F)C(F)(F)C(F)(F)C(F)(F)C(F)(F)C(F)(F)C(F)(F)C(F)(F)F` (centres undefined) [1-(Perfluorofluorooctyl)propane-2,3-diol], the POD vs vehicle is over 100 µM.

With `CC(O)C(F)(F)C(F)(F)F` (centres undefined) [1-Pentafluoroethylethanol], the POD vs vehicle was over 100 µM.

`OCC(F)(F)C(F)(F)C(F)(F)C(F)F` [1H,1H,5H-Perfluoropentanol]: the POD vs vehicle was over 100 µM.

The compound `O=S(=O)(OCC(F)(F)F)C(F)(F)C(F)(F)C(F)(F)C(F)(F)F` [2,2,2-Trifluoroethyl_perfluorobutanesulfonate] returned a POD vs vehicle of over 100 µM.

Consider `O=C(O)C(F)(F)C(F)(F)C(F)F` [2,2,3,3,4,4-Hexafluorobutanoic_acid], for which the POD vs vehicle was over 100 µM.

For `NC(O)(C(F)(F)F)C(F)(F)F` [2-Aminohexafluoropropan-2-ol], the POD vs vehicle was over 100 µM.

As for `O=C(O)CCC(F)(F)C(F)(F)C(F)(F)C(F)(F)C(F)(F)F` [2H,2H,3H,3H-Perfluorooctanoic_acid], the POD vs vehicle is over 100 µM.

The compound `O=C(O)C=C(C(F)(F)F)C(F)(F)F` [3,3-Bis(trifluoromethyl)-2-propenoic_acid] showed a POD vs vehicle of over 100 µM.

Turning to `O=C(O)C=CC(F)(C(F)(F)F)C(F)(F)F` [3-(Perfluoroisopropyl)-2-propenoic_acid], the POD vs vehicle is over 100 µM.

On to `O=C(O)CCC(F)(F)C(F)(F)C(F)(F)C(F)(F)C(F)(F)C(F)(F)C(F)(F)F` [3-Perfluoroheptylpropanoic_acid], for which the POD vs vehicle is over 100 µM.

Take `O=C(O)CCC(F)(F)C(F)(F)C(F)(F)F` [3:3 Fluorotelomer carboxylic acid]: the POD vs vehicle is over 100 µM.

In turn, `O=C(CC(=O)C(F)(F)C(F)(F)F)C(F)(F)F` [3H,3H-Perfluoro-2,4-hexanedione] registered a POD vs vehicle of over 100 µM.

`OCCC(F)(F)C(F)(F)C(F)(F)C(F)(F)F` [4:2 Fluorotelomer alcohol] gave a POD vs vehicle of over 100 µM.

The compound `O=S(=O)(O)CCC(F)(F)C(F)(F)C(F)(F)C(F)(F)F` [4:2 Fluorotelomer sulfonic acid] returned a POD vs vehicle of over 100 µM.

In turn, `O=C([O-])C(F)(F)C(F)(F)C(F)(F)C(F)(F)C(F)(F)C(F)(F)C(F)(F)F.[NH4+]` [Ammonium_perfluorooctanoate] had a POD vs vehicle of over 100 µM.

Consider `OCC(F)(F)OC(F)(F)C(F)(F)OC(F)(F)C(F)(F)OC(F)(F)F` [Fluorinated_triethylene_glycol_monomethyl_ether], for which the POD vs vehicle was over 100 µM.

In turn, `CN(CCO)S(=O)(=O)C(F)(F)C(F)(F)C(F)(F)C(F)(F)C(F)(F)C(F)(F)C(F)(F)C(F)(F)F` [N-Methyl-N-(2-hydroxyethyl)perfluorooctanesulfonamide] yielded a POD vs vehicle of over 100 µM.

In the case of `O=S(=O)(O)C(F)(F)C(F)(F)C(F)(F)C(F)(F)F` [Perfluorobutanesulfonic_acid], the POD vs vehicle was over 100 µM.

Take `O=C(O)C(F)(F)C(F)(F)C(F)(F)C(F)(F)C(F)(F)C(F)(F)C(F)(F)C(F)(F)C(F)(F)C(F)(F)F` [Perfluoroundecanoic_acid]: the POD vs vehicle is over 100 µM.

Another assay relates to 20032 (donor line of iPSC-derived cardiomyocytes). Described as above. The following applies: exposure time: 90 min. The protocol: as §1
Regarding `NC(=O)C(F)(F)C(F)(F)C(F)(F)C(F)F`, the POD vs vehicle was over 100 µM.

With `OCC(O)CC(F)(F)C(F)(F)C(F)(F)C(F)(F)C(F)(F)C(F)(F)C(F)(F)C(F)(F)F` (centres undefined) [1-(Perfluorofluorooctyl)propane-2,3-diol], the POD vs vehicle was over 100 µM.

Regarding `CC(O)C(F)(F)C(F)(F)F` (centres undefined) [1-Pentafluoroethylethanol], the POD vs vehicle was over 100 µM.

Consider `OCC(F)(F)C(F)(F)C(F)(F)C(F)F` [1H,1H,5H-Perfluoropentanol], for which the POD vs vehicle is over 100 µM.

For `O=S(=O)(OCC(F)(F)F)C(F)(F)C(F)(F)C(F)(F)C(F)(F)F` [2,2,2-Trifluoroethyl_perfluorobutanesulfonate], the POD vs vehicle is over 100 µM.

The compound `O=C(O)C(F)(F)C(F)(F)C(F)F` [2,2,3,3,4,4-Hexafluorobutanoic_acid] yielded a POD vs vehicle of over 100 µM.

`NC(O)(C(F)(F)F)C(F)(F)F` [2-Aminohexafluoropropan-2-ol] displayed a POD vs vehicle of over 100 µM.

As to `O=C(O)CCC(F)(F)C(F)(F)C(F)(F)C(F)(F)C(F)(F)F` [2H,2H,3H,3H-Perfluorooctanoic_acid], the POD vs vehicle was over 100 µM.

For the compound `O=C(O)C=C(C(F)(F)F)C(F)(F)F` [3,3-Bis(trifluoromethyl)-2-propenoic_acid], the POD vs vehicle is over 100 µM.

Regarding `O=C(O)C=CC(F)(C(F)(F)F)C(F)(F)F` [3-(Perfluoroisopropyl)-2-propenoic_acid], the POD vs vehicle is over 100 µM.

The values are drawn from the supplement of paper PMC11368000.
